Experimental data reported in patent US4713453A, “Oxabicycloheptane derivatives” (Suntori Limited, priority 1986, dated 1987).
In brackets after ≈: the same amount, converted by molar mass. Read-outs that look alike come from different tables or passages of the source.

Legend:
[1] = tested on: rabbit platelet rich plasma; test: Effect on in vitro platelet aggregation; type: cell-based, rabbit (male Japanese white); conditions: Oryctolagus cuniculus, Platelet
Method: 5. Effect on in vitro platelet aggregation Arterial blood was drawn from the ear artery of male Japanese white rabbits. Platelet rich plasma (PRP) was prepared by centrifugation of 9 ml of blood mixed with 1 ml of 3.8% sodium citrate as anticoagulant. Platelet aggregation was measured optically according to Born's method. ADP (10 μM), collagen (37.5 μg/ml), platelet activating factor (PAF, 0.11 nM) and calcium ionophore A 23187 (1 μg/ml) were used as platelet aggregators. Test compounds were added 1 minute prior to the addition of aggregating agents.

[2] = tested on: rabbit platelet rich plasma; test: Effect on in vitro platelet aggregation; type: cell-based, rabbit (male Japanese white); conditions: Oryctolagus cuniculus, aggregator AA, read-out: Anti-platelet aggregation IC50, AA
Male ddY mice [3] = test: Anti-hypoxia effect (brain protection in low-oxygen state after evacuation): survival time; type: in vivo, mouse (male ddY); conditions: intraperitoneal, 180 mmHg
Method: 2. Anti-hypoxia effect (i.e., […] protection in low-oxygen state after evacuation)
Male ddY m8mice weighing 22-30 g were used in groups each consisting of 7-10 animals. The mice were placed in a desiccator (capacity: ca. 1,000 ml) which was evacuated with a vacuum pump to an internal pressure of 180 mmHg after intraperitoneal administration of test compounds. The survival time, or the duration of time between the start of evacuation and the cessation of breathing, was measured, and this was compared with the value for a vehicle group. Any survival time longer than a period of 15 minutes after application of a hypoxia load was counted as 15 minutes.

peroxylipid formation = test: Anti-lipidperoxidation effect (TBA assay of malondialdehyde in rat brain homogenate); type: biochemical, rat (male Wistar); conditions: for Inhibition of peroxylipid formation: 10 μl (10^-4 M) test compound in 990 μl sample, 37° C., 30 minutes, pH 7.4; for anti-lipidperoxidation effects: rat brain homogenate
Method: 3. Anti-lipidperoxidation effect
Male Wistar rats weighing 200-250 g were used. The brain of each rat was extracted after decapitation, homogenized with 50 mM of a phosphate buffer solution (PBS, pH 7.4) and centrifuged at 1,000 g for 15 minutes. The supernatant was stored frozen at -30° C. Before use, it was thawed under flowing water and diluted with PBS three-fold to prepare a live sample.
Two samples were prepared by adding 10 μl (10^-4 M) of a test compound in solution to 990 μl of the live sample. One sample was incubated at 37° C. for 30 minutes and reaction was quenched by addition of 0.2 ml of 35% aqueous perchloric acid. The other sample was immediately mixed with 35% perchloric acid without incubation. Each of the mixtures was centrifuged at 3,000 rpm for 15 minutes and 0.5 ml of the supernatant was subjected to TBA assay (Yagi et al., Anal. Biochem., 95, 351 (1979)) for determining the malondialdehyde (MDA) content (×10^-4 M) by subtracting the peroxylipid level for the unincubated mixture from that for the incubated mixture. The percent inhibition of peroxylipid formation was calculated by the following formula: [formula] where A is the MDA content of a treated sample and B is the value for a control sample that was not treated with any test compound.

[4] = tested on: scopolamine amnesia mouse; test: Anti-amnesia effect (scopolamine-induced retrograde amnesia), step-through passive avoidance; type: in vivo, mouse (male ddY); conditions: ip, 24 h, significant prolongation of step-through latency, intraperitoneal, scopolamine 0.5 mg/kg s.c., read-out: Minimum effective amount
Method: 6a. Anti-amnesia effect (i.e., capability of preventing scopolamine-inducedretrograde amnesia)
Five-week old male ddY weighing 25-30 g were used in groups each consisting of 10 animals. Memory retention deficit induced by scopolamine was evaluated by two-compartment step-through passive avoidance task. […] The floor of the dark compartment was provided with a current-conducting grid.
The experimental method was as follows. A scopolamine amnesia mouse that had been given subcutaneous injection of 0.5 mg/kg of an aqueous solution of scopolamine borate 20 minutes before was placed in the light compartment and when its forefeet touched the grid floor of the dark compartment, a current of 0.6 mA was applied to give a foot shock to the mouse (acquired conation). Immediately thereafter, a selected test compound or a control (physiological saline solution) was administered intraperitoneally. Twenty-four hours later, the mouse was replaced in the light compartment and the step-through latency, or the time required for the mouse to move to the dark compartment, was measured for a period of up to 300 seconds (test conation). The minimum effective amount of the test compound that provided a significant prolongation of the step-through latency over the control was determined.

Male ddY mice [5] = test: Anti-cerebroischemic effect (brain protection after ischemia by decapitation): gasping time; type: in vivo, mouse (male ddY); conditions: intraperitoneal, 30 min before decapitation
Method: 1. Anti-cerebroischemic effect (i.e., brain protection after ischemia by decapitation)
Male ddY mice weighing 22-30 g were used in groups each consisting of 6 animals. Test compounds were administered intraperitoneally to the mice which were decapitated 30 minutes after the administration. The gasping time, or the duration of time between the onset of panting after decapitation and its cessation, was measured, and this was compared with the gasping time for a control group which were given only a liquid vehicle.

[6] = aggregator ADP (10 μM), read-out: Anti-platelet aggregation IC50, ADP
[7] = aggregator PAF (0.11 nM), read-out: Anti-platelet aggregation IC50, PAF
[8] = aggregator calcium ionophore A 23187 (1 μg/ml), read-out: Anti-platelet aggregation IC50, A 23187
[9] = aggregator collagen (37.5 μg/ml), read-out: Anti-platelet aggregation IC50, Collagen

| Compound | prolongation of survival time (Male ddY mice [3]; 12.5 mg/kg) | Inhibition of peroxylipid formation (peroxylipid formation) [%] | minimal effective dose [4] [mg/kg] | prolongation of gasping time (Male ddY mice [5]; 25 mg/kg) | other results |
| --- | --- | --- | --- | --- | --- |
| CN(C)CCCN1c2ccccc2Sc2ccc(Cl)cc21 [Chlorpromazine] |  |  |  |  | IC50 [1, 6]: 57 µg/mL (≈ 179 µM); IC50 [1, 7]: 93 µg/mL (≈ 292 µM); IC50 [1, 8]: 125 µg/mL (≈ 392 µM); IC50 [1, 9]: 22 µg/mL (≈ 69 µM); IC50 [2]: 105 µg/mL (≈ 329 µM) |
| CC(CON=C1c2ccccc2OC2(c3ccccc3)CC12)CN(C)C (stereo not drawn) [Example 4, 3,4-Benzo-5-(3-dimethylamino-2-methylpropyl)-oxyimino-1-phenyl-2-oxabicyclo[4.1.0]heptane] | significantly prolonging the survival time | 56.0 |  |  |  |
| c1ccc(C23CC2C(=NOCCC24CCCN2CCC4)c2ccccc2O3)cc1 (stereo not drawn) [Example 5, 3,4-Benzo-5-(2-pyrrolizidin-8-ylethyl)oxyimino-1-phenyl-2-oxabicyclo[4.1.0]heptane] | significantly prolonging the survival time | 96.5 |  |  | anti-lipidperoxidation effects (peroxylipid formation): strong anti-lipidperoxidation effects |
| COc1ccc2c(c1)OC1(c3ccccc3)CC1C2=NOCCN(C)C (stereo not drawn) [Example 7, 3,4-(3-Methoxybenzo)-5-(2-dimethylaminoethyl)oxyimino-1-phenyl-2-oxabicyclo[4.1.0]heptane] |  |  | 20 | significantly prolonging the gasping time |  |
| CN(C)CCCON=C1c2ccccc2OC2(c3cccs3)CC12 (stereo not drawn) [Example 11, 3,4-Benzo-5-(3-dimethylaminopropylo)xyimino-1-thienyl-2-oxabicyclo[4.1.0]heptane] | significantly prolonging the survival time |  |  |  |  |
| CNCCCON=C1c2ccccc2OC2(c3ccccc3)CC12 (stereo not drawn) [Example 15, 3,4-Benzo-5-(3-methylaminopropyl)oxyimino-1-phenyl-2-oxabicyclo[4.1.0]heptane] | significantly prolonging the survival time | 85.7 |  |  | anti-lipidperoxidation effects (peroxylipid formation): strong anti-lipidperoxidation effects |
| CN(C)CCCCCON=C1c2ccccc2OC2(c3ccccc3)CC12 (stereo not drawn) [Example 21, 3,4-Benzo-5-(5-dimethylaminopentyl)oxyimino-1-phenyl-2-oxabicyclo[4.1.0]heptane] | significantly prolonging the survival time | 62.1 | 25 | significantly prolonging the gasping time | prolongation of gasping time (Male ddY mice [5]; 12.5 mg/kg): significant prolongation of the gasping time |
| CN(C)CCOC1c2ccccc2OC2(c3ccccc3)CC12 (stereo not drawn) [Example 23, 3,4-Benzo-5-(2-dimethylaminoethyl)oxy-1-phenyl-2-oxabicyclo[4.1.0]heptane] |  |  | 50 | significantly prolonging the gasping time | prolongation of gasping time (Male ddY mice [5]; 12.5 mg/kg): significant prolongation of the gasping time |
| COc1ccc2c(c1)OC1(c3ccccc3)CC1C2OCCN(C)C (stereo not drawn) [Example 28, 3,4-(3-Methoxybenzo)-5-(2-dimethylaminoethyl)oxy-1-phenyl-2-oxabicyclo[4.1.0]heptane] |  | 77.6 | 12.5 | significantly prolonging the gasping time | prolongation of gasping time (Male ddY mice [5]; 12.5 mg/kg): significant prolongation of the gasping time |
| CN(C)CCCCOC1c2ccccc2OC2(c3ccccc3)CC12 (stereo not drawn) [Example 30, 3,4-Benzo-5-(4-dimethylaminobutyl)oxy-1-phenyl-2-oxabicyclo[4.1.0]heptane] | significantly prolonging the survival time |  | 12.5 | significantly prolonging the gasping time | prolongation of survival time (Male ddY mice [3]; 6.25 mg/kg or smaller): significant prolongation of the survival time |
| CN(C)CCCCCCOC1c2ccccc2OC2(c3ccccc3)CC12 (stereo not drawn) [Example 31] | significantly prolonging the survival time |  |  |  | prolongation of survival time (Male ddY mice [3]; 6.25 mg/kg or smaller): significant prolongation of the survival time |
| NCCCCCCNS(=O)(=O)c1cccc2c(Cl)cccc12 [Example W-7] |  |  |  |  | IC50 [1, 6]: 18 µg/mL (≈ 52.8 µM); IC50 [1, 7]: 27 µg/mL (≈ 79.2 µM); IC50 [1, 8]: 19 µg/mL (≈ 55.7 µM); IC50 [1, 9]: 11 µg/mL (≈ 32.3 µM); IC50 [2]: 11 µg/mL (≈ 32.3 µM) |
